Experimental findings from patent US8901118B2, “Compounds and methods for kinase modulation, and indications therefor” (Plexxikon Inc., priority 2010, dated 2014) are described below.

The target in experiment [1] is T1, BCR-NTRK1 BaF3 cells (Homo sapiens, UniProt P04629).
T1 construct: fused on or other part: P11274 (Breakpoint cluster region protein)
The experiment can be described thus: BaF3 BCR-NTRK1 cell proliferation assay (ATPlite). As to conditions: read-out: Inhibition of Cell Proliferation IC50, BCR/BaF3 TrkA. The class given is cell-based. The method, then:
(§1) Compounds are assessed in a variety of cell based assays. For example BaF3 cells engineered with any of BCR-FMS, BCR-KIT, BCR-FLT3, BCR-NTRK1, BCR-NTRK2, and BCR-NTRK3, are used in cell proliferation assays to assess inhibitory activity of Fms, Kit, Flt-3, TrkA, TrkB, and TrkC, respectively. An MV-4-11 (leukemia) cell proliferation assay is used to assess inhibitory activity in Flt-3, and SKNSH (human neuroblastoma) cell proliferation assay is used to assess efficacy of Fms/Trk inhibitors. Additional cells may be assayed similarly to assess the efficacy of Fms/Trk inhibitors, such as MiaPaCa (human pancreatic cancer) and Capan-1 (human pancreatic carcinoma) cells. Reagent and assay conditions are as follows: • BaF3 cells: • Maintained in RPMI containing 10% FBS, 1% PenStrep, 1% NEAA, and 1% L-Glutamine, supplemented with 1 mg/mL G418 and 5% WEHI-CM (or recombinant murine IL-3). • Confluent cells are split 1:50 to 1:100 every 3-4 days. • MV-4-11 cells: • Maintained in Iscove's Modified Dulbecco's Medium containing 10% FBS. • Confluent cells are split 1:4 every 3-4 days. • SKNSH cells: RPMI containing 10% FBS. On day 1, cells are counted, then centrifuged in a conical tube for 5 minutes at 1000 rpm. The supernatant is removed and cells are re-suspended as follows: • BaF3: resuspend in growth media +1 mg/mL G418 (without WEHFIL-3) to 2×10^5 cells/mL. • MV-4-11: resuspend in growth media to 5×10^5 cells/mL. • SKNSH: resuspend in growth media to 2×10^4 cells/mL. The cells are plated (50 μL, 150 μL for SKNSH cells) in each well of a 96-well dish (Corning 3610) and incubated at 37° C. in 5% CO2 overnight, cells plated to a final concentration of cells as follows: • BaF3: 10,000 cells per well. • MV-4-11: 25,000 cells per well. • SKNSH: 3,000 cells per well. On day 2, compound at a maximum concentration of 5 mM is serially diluted 1:3 for a total of 8 point titration with DMSO as a control. A 1 μL aliquot of each dilution point is added to 249 μL growth media and 50 μL is added to a well containing cells, providing 10 μM compound for the maximum concentration point. The cells are incubated for 3 days at 37° C. in 5% CO2. For SKNSH cells, a 0.75 μL aliquot of appropriate dilution in DMSO is added to 150 μL of cells. On day 5, ATPlite 1 step Luminescence Assay System (Perkin Elmer #6016739) is brought to room temperature along with the cell cultures. ATPlite is added to each well as follows: • BaF3: 25 μL per well. • MV-4-11: 40 μL per well. • SKNSH: 20 μL per well. The cells are incubated at room temperature for 10 minutes, then luminescence is read on Safire reader. The measured luminescence correlates directly with cell number, such that the reading as a function of compound concentration is used to determine the IC50 value.
(§2) It is understood that the results of these assays may vary as assay conditions are varied. Inhibition levels determined under the conditions described herein represent a relative activity for the compounds tested under the specific conditions employed. The cell based assays are likely to show variability due to the complexity of the system and the sensitivity thereof to any changes in the assay conditions. […] Results for compounds that are tested and show substantially no inhibition below the highest tested concentration are represented as “-” in the tables below. In some instances, the compounds were not tested in all of the assays, or assay results were not valid, as indicated by NA in the tables below.

For experiment [2], the target named is CYP3A4(BFC) (Homo sapiens, UniProt P08684). Kind of experiment: CYP3A4(BFC) inhibition. The class given is in vitro ADME. The conditions noted are these: CYP3A4, substrate BFC; read-out: Cyp IC50 3A4(BFC). The method, then: CYP (Cytochrome P450) enzymes are the major drug metabolizing enzymes present in the liver. The inhibition of CYP enzyme activity (IC50) for each of CYP1A2, CYP2C19, CYP2C9, CYP2D6, CYP3A4(BFC) and CYP3A4(BQ) is determined for compounds, where inhibition of metabolism of a known substrate leads to a decrease in the fluorescence of the metabolized product. The fluorescence of the product is monitored as a function of compound concentration. Compounds are dissolved in DMSO to a concentration of 100 mM. These are diluted 1 μL into 82 μL of acetonitrile. An 11 μL aliquot of this solution is then added to 204 μL of cofactor mix (1.3% NADPH Regeneration system Solution A, 1.04% NADPH Regeneration system Solution B from BD Biosciences, 5% acetonitrile and 0.05% DMSO). These are then serially diluted 1:1 (160 μL to 160 μL co-factor mix) for a total of 10 points. A 10 μL aliquot of this final mixture is dispensed into 384 well assay plates and incubated for 10 minutes at 37° C. […] Assay plates are incubated at 37° C. (CYP1A2-15 min; CYP2C9-45 min; CYP2C19, 2D6 and 3A4-30 min) and read in a Tecan Safire 2 plate reader (CYP1A2, 2C19 and 3A4 409 ex/460 em; CYP2C9 and 2D6 409 ex/530 em). The signal versus compound concentration is used to determine the IC50. The enzymes and substrates for this assay are obtained from BD Biosciences.

The target in experiment [3] is T2, BCR-KIT BaF3 cells (Homo sapiens, UniProt P10721).
T2 construct: fused on or other part: P11274 (Breakpoint cluster region protein)
Kind of experiment: BaF3 BCR-KIT cell proliferation assay (ATPlite). It is filed as cell-based. The conditions noted are these: read-out: Inhibition of Cell Proliferation IC50, BCR/BaF3 Kit. The method, then:
as §1, §2

Experiment [4] addresses T3, BCR-NTRK3 BaF3 cells (Homo sapiens, UniProt Q16288).
T3 construct: fused on or other part: P11274 (Breakpoint cluster region protein)
The experiment can be described thus: BaF3 BCR-NTRK3 cell proliferation assay (ATPlite). The conditions noted are these: read-out: Inhibition of Cell Proliferation IC50, BCR/BaF3 TrkC. It is filed as cell-based. The method, then:
as §1, §2

Chain of CYP3A4(BFC) (P08684 whole entry): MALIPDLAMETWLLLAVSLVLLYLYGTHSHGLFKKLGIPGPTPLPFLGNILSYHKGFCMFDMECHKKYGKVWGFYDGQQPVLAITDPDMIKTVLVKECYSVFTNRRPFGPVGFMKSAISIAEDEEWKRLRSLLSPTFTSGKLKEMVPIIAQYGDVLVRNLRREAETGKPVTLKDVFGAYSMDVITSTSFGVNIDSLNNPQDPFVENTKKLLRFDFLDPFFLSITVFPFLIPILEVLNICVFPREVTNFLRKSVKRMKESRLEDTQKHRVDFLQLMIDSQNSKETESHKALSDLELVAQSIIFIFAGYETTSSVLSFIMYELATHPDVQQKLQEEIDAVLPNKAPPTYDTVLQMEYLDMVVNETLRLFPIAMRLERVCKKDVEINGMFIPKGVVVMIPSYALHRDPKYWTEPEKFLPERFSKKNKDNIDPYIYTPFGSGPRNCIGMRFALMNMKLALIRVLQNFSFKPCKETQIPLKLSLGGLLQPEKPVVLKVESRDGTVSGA
T1 sequence (P04629 510-781): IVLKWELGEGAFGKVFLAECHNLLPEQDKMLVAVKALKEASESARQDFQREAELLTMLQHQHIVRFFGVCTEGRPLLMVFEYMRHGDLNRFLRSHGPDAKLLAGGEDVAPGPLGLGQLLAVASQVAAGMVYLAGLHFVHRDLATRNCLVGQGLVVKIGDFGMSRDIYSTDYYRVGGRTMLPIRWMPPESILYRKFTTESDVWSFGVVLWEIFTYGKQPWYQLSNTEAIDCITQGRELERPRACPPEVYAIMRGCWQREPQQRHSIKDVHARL
T2 sequence (P10721 589-937): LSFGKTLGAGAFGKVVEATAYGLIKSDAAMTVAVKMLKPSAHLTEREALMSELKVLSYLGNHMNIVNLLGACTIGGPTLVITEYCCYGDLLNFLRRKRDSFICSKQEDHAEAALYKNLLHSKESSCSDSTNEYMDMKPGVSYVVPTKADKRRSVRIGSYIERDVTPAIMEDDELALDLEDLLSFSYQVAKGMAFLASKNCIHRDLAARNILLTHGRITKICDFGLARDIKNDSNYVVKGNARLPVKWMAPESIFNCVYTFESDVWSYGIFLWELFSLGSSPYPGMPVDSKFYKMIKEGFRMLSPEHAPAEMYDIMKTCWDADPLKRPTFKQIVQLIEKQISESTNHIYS
T3 sequence (Q16288 whole entry, the tested form may be a part): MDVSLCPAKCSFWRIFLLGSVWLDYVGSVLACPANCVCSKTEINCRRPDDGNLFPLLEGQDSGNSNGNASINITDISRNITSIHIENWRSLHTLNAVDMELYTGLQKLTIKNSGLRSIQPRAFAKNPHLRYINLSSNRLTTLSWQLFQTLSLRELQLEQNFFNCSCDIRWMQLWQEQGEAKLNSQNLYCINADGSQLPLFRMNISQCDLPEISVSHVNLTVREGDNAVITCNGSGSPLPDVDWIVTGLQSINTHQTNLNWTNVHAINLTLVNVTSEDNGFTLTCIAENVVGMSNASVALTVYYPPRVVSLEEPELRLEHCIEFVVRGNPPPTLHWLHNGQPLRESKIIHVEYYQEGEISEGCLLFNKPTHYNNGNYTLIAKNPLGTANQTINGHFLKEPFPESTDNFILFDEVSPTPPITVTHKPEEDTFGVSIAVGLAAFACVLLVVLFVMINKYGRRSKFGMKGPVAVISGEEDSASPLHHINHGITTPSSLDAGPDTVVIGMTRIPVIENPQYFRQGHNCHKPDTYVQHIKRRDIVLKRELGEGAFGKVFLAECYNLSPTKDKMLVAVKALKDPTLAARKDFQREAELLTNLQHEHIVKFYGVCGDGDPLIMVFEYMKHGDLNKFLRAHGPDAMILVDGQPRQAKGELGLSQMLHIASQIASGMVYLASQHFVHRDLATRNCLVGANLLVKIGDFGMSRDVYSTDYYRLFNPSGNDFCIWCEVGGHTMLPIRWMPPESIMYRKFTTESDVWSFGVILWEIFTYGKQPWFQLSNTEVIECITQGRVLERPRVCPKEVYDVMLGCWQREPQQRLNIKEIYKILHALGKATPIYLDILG

For the molecule `Cc1cnc2[nH]cc(Cc3cnc(Nc4ccc(F)cc4)nc3)c2c1` [Compound P-3010, (4-Fluoro-phenyl)-[5-(5-methyl-1H-pyrrolo[2,3-b]pyridin-3-ylmethyl)-pyrimidin-2-yl]-amine], the IC50 in experiment [1] was greater than 10000 nM; in experiment [2], greater than 10000 nM; in experiment [3], less than 1000 nM; in experiment [4], greater than 10000 nM.

With `Clc1ccc(Nc2ncc(Cc3c[nH]c4ncc(Cl)cc34)cn2)cc1` [Compound P-3011, (4-Chloro-phenyl)-[5-(5-chloro-1H-pyrrolo[2,3-b]pyridin-3-ylmethyl)-pyrimidin-2-yl]-amine], the IC50 in experiment [1] was less than 1000 nM; in experiment [2], greater than 10000 nM; in experiment [3], less than 100 nM; in experiment [4] it was less than 100 nM.

For the molecule `Fc1ccc(Nc2ncc(Cc3c[nH]c4ncc(Cl)cc34)cn2)cc1` [Compound P-3012, [5-(5-Chloro-1H-pyrrolo[2,3-b]pyridin-3-ylmethyl)-pyrimidin-2-yl]-(4-fluoro-phenyl)-amine], the IC50 was less than 1000 nM in experiment [1], greater than 10000 nM in experiment [2], less than 1000 nM in experiment [3] and less than 1000 nM in experiment [4].

In the case of `Fc1nc(NC2CCC(F)(F)CC2)ccc1Cc1c[nH]c2ncc(Cl)cc12` [Compound P-3013, [5-(5-Chloro-1H-pyrrolo[2,3-b]pyridin-3-ylmethyl)-6-fluoro-pyridin-2-yl]-(4,4-difluoro-cyclohexyl)-amine], the IC50 in experiment [1] is greater than 10000 nM; in experiment [2], greater than 10000 nM; in experiment [3] it was greater than 1000 nM; in experiment [4] it was greater than 10000 nM.

Consider `COc1ccc(Nc2ccc(C(=O)c3c[nH]c4ncnc(NC(C)(C)C)c34)c(F)n2)cn1` [Compound P-4055, [4-(tert-butylamino)-7H-pyrrolo[2,3-d]pyrimidin-5-yl]-[2-fluoro-6-[(6-methoxy-3-pyridyl)amino]-3-pyridyl]methanone], for which the IC50 in experiment [1] was less than 1000 nM; in experiment [2] it was greater than 10000 nM; in experiment [3], greater than 1000 nM; in experiment [4], less than 10 nM.

As to `COc1ccc(Nc2ccc(C(=O)c3c[nH]c4ncnc(NC5CCC(F)(F)CC5)c34)c(F)n2)cn1` [Compound P-4056, [4-[(4,4-difluorocyclohexyl)amino]-7H-pyrrolo[2,3-d]pyrimidin-5-yl]-[2-fluoro-6-[(6-methoxy-3-pyridyl)amino]-3-pyridyl]methanone], the IC50 was less than 1000 nM in experiment [1], greater than 10000 nM in experiment [2], greater than 1000 nM in experiment [3] and less than 10 nM in experiment [4].

`O=C(c1ccc(NC2CCC(F)(F)CC2)nc1Cl)c1c[nH]c2ncnc(NCC(F)(F)F)c12` [Compound P-4057, [2-chloro-6-[(4,4-difluorocyclohexyl)amino]-3-pyridyl]-[4-(2,2,2-trifluoroethylamino)-7H-pyrrolo[2,3-d]pyrimidin-5-yl]methanone]: the IC50 is greater than 1000 nM in experiment [1], greater than 10000 nM in experiment [2], greater than 1000 nM in experiment [3] and less than 1000 nM in experiment [4].

On to `CNc1ncnc2[nH]cc(C(=O)c3ccc(NC4CCC(F)(F)CC4)nc3Cl)c12` [Compound P-4058, [2-chloro-6-[(4,4-difluorocyclohexyl)amino]-3-pyridyl]-[4-(methylamino)-7H-pyrrolo[2,3-d]pyrimidin-5-yl]methanone], for which the IC50 was less than 1000 nM in experiment [1], greater than 10000 nM in experiment [2], less than 1000 nM in experiment [3] and less than 100 nM in experiment [4].

Turning to `O=C(c1ccc(NC2CCC(F)(F)CC2)nc1Cl)c1c[nH]c2ncnc(NC3CC3)c12` [Compound P-4059, [2-chloro-6-[(4,4-difluorocyclohexyl)amino]-3-pyridyl]-[4-(cyclopropylamino)-7H-pyrrolo[2,3-d]pyrimidin-5-yl]methanone], the IC50 is less than 1000 nM in experiment [1], greater than 10000 nM in experiment [2], greater than 1000 nM in experiment [3] and less than 100 nM in experiment [4].
